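Results reflect a 48-hour exposure of cells in 96-well plates to compound at five concentrations. GI50: concentration for 50% inhibition of growth.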 Calls of active or inactive are those of the source. Rule as the data show it: active = GI50 up to about 1.1 µM and inactive = higher.
Key:
Assay in all cases: NCI-60 cell line screen, 48 h
EKVX = test system: EKVX
HCC 2998 = test system: HCC 2998
NCI-H226 = test system: NCI-H226
786-0 = test system: 786-0
A549 = test system: A549
CAKI-1 = test system: CAKI-1
CCRF-CEM = test system: CCRF-CEM
COLO 205 = test system: COLO 205
DU-145 = test system: DU-145
HCT-15 = test system: HCT-15
HL-60 = test system: HL-60
HOP-62 = test system: HOP-62
HT-29 = test system: HT-29
IGROV-1 = test system: IGROV-1
K562 = test system: K562
KM12 = test system: KM12
M14 = test system: M14
MCF7 = test system: MCF7
MDA-MB-231 = test system: MDA-MB-231
MDA-N = test system: MDA-N
MOLT-4 = test system: MOLT-4
Malme-3M = test system: Malme-3M
NCI-H23 = test system: NCI-H23
OVCAR-8 = test system: OVCAR-8
PC-3 = test system: PC-3
RPMI-8226 = test system: RPMI-8226
RXF 393 = test system: RXF 393
SF-268 = test system: SF-268
SF-295 = test system: SF-295
SK-MEL-28 = test system: SK-MEL-28
SK-MEL-5 = test system: SK-MEL-5
SK-OV-3 = test system: SK-OV-3
SN12C = test system: SN12C
SNB-75 = test system: SNB-75
SR = test system: SR
SW-620 = test system: SW-620
T47D = test system: T47D
TK-10 = test system: TK-10
UACC-257 = test system: UACC-257
UACC-62 = test system: UACC-62
ACHN = test system: ACHN
HCT-116 = test system: HCT-116
HOP-92 = test system: HOP-92
Hs-578T = test system: Hs-578T
LOX IMVI = test system: LOX IMVI
MDA-MB-435 = test system: MDA-MB-435
NCI-H460 = test system: NCI-H460
NCI-H522 = test system: NCI-H522
NCI/ADR-RES = test system: NCI/ADR-RES
OVCAR-3 = test system: OVCAR-3
OVCAR-4 = test system: OVCAR-4
OVCAR-5 = test system: OVCAR-5
SF-539 = test system: SF-539
SK-MEL-2 = test system: SK-MEL-2
SNB-19 = test system: SNB-19
U-251 = test system: U-251
UO-31 = test system: UO-31

## CC(C)=CCC1=C(O)C(=O)c2ccccc2C1=O
EKVX
  GI50: > 100 µM (inactive)
HCC 2998
  GI50: > 100 µM (inactive)
NCI-H226
  GI50: > 100 µM (inactive)

## N#Cc1ccc(/N=C(/NCC(=O)O)Nc2cccc3ccccc23)cc1
786-0
  GI50: > 10 µM (inactive)
A549
  GI50: > 10 µM (inactive)
CAKI-1
  GI50: > 10 µM (inactive)
CCRF-CEM
  GI50: > 10 µM (inactive)
COLO 205
  GI50: > 10 µM (inactive)
DU-145
  GI50: > 10 µM (inactive)
EKVX
  GI50: > 10 µM (inactive)
HCC 2998
  GI50: > 10 µM (inactive)
HCT-15
  GI50: > 10 µM
HL-60
  GI50: > 10 µM (inactive)
HOP-62
  GI50: > 10 µM (inactive)
HT-29
  GI50: > 10 µM (inactive)
IGROV-1
  GI50: > 10 µM (inactive)
K562
  GI50: > 10 µM (inactive)
KM12
  GI50: > 10 µM (inactive)
M14
  GI50: > 10 µM (inactive)
MCF7
  GI50: > 10 µM (inactive)
MDA-MB-231
  GI50: > 10 µM (inactive)
MDA-N
  GI50: > 10 µM (inactive)
MOLT-4
  GI50: > 10 µM (inactive)
Malme-3M
  GI50: > 10 µM (inactive)
NCI-H23
  GI50: > 10 µM (inactive)
OVCAR-8
  GI50: > 10 µM (inactive)
PC-3
  GI50: > 10 µM (inactive)
RPMI-8226
  GI50: > 10 µM (inactive)
RXF 393
  GI50: > 10 µM (inactive)
SF-268
  GI50: > 10 µM (inactive)
SF-295
  GI50: > 10 µM (inactive)
SK-MEL-28
  GI50: > 10 µM (inactive)
SK-MEL-5
  GI50: > 10 µM (inactive)
SK-OV-3
  GI50: > 10 µM (inactive)
SN12C
  GI50: > 10 µM (inactive)
SNB-75
  GI50: > 10 µM (inactive)
SR
  GI50: > 10 µM (inactive)
SW-620
  GI50: > 10 µM (inactive)
T47D
  GI50: > 10 µM (inactive)
TK-10
  GI50: > 10 µM (inactive)
UACC-257
  GI50: > 10 µM (inactive)
UACC-62
  GI50: > 10 µM (inactive)

## NNc1ncc2c(n1)-c1ccccc1OC2
786-0
  GI50: 64.3 µM (inactive)
A549
  GI50: 96.2 µM (inactive)
ACHN
  GI50: 42.2 µM (inactive)
CAKI-1
  GI50: > 100 µM (inactive)
CCRF-CEM
  GI50: 17.3 µM (inactive)
COLO 205
  GI50: 59.3 µM (inactive)
DU-145
  GI50: 61 µM (inactive)
EKVX
  GI50: 49.4 µM (inactive)
HCT-116
  GI50: 36.5 µM (inactive)
HCT-15
  GI50: 29.9 µM
HL-60
  GI50: 19.7 µM (inactive)
HOP-62
  GI50: 35.6 µM (inactive)
HOP-92
  GI50: 24.7 µM (inactive)
HT-29
  GI50: 43.9 µM (inactive)
Hs-578T
  GI50: > 100 µM (inactive)
IGROV-1
  GI50: 31 µM (inactive)
K562
  GI50: 50.9 µM (inactive)
KM12
  GI50: 54.1 µM (inactive)
LOX IMVI
  GI50: 58.9 µM (inactive)
M14
  GI50: 52.4 µM (inactive)
MCF7
  GI50: 50.1 µM (inactive)
MDA-MB-231
  GI50: > 100 µM (inactive)
MDA-MB-435
  GI50: 70.5 µM (inactive)
MDA-N
  GI50: > 100 µM (inactive)
MOLT-4
  GI50: 22.5 µM (inactive)
Malme-3M
  GI50: 51.2 µM (inactive)
NCI-H226
  GI50: 75.2 µM (inactive)
NCI-H23
  GI50: > 100 µM (inactive)
NCI-H460
  GI50: 32.3 µM (inactive)
NCI-H522
  GI50: 46.5 µM (inactive)
NCI/ADR-RES
  GI50: 28 µM (inactive)
OVCAR-3
  GI50: 22.2 µM (inactive)
OVCAR-4
  GI50: 67.1 µM (inactive)
OVCAR-5
  GI50: > 100 µM (inactive)
OVCAR-8
  GI50: 44.4 µM (inactive)
PC-3
  GI50: 47.2 µM (inactive)
RPMI-8226
  GI50: 38.2 µM (inactive)
RXF 393
  GI50: > 100 µM (inactive)
SF-268
  GI50: 41.6 µM (inactive)
SF-295
  GI50: 36.1 µM (inactive)
SF-539
  GI50: 46.3 µM (inactive)
SK-MEL-28
  GI50: > 100 µM (inactive)
SK-MEL-2
  GI50: > 100 µM (inactive)
SK-MEL-5
  GI50: 76.9 µM (inactive)
SK-OV-3
  GI50: 57.1 µM (inactive)
SN12C
  GI50: 71.6 µM (inactive)
SNB-19
  GI50: > 100 µM (inactive)
SNB-75
  GI50: 35.6 µM (inactive)
SR
  GI50: 27.8 µM (inactive)
SW-620
  GI50: 69.7 µM (inactive)
TK-10
  GI50: > 100 µM (inactive)
U-251
  GI50: 54.2 µM (inactive)
UACC-257
  GI50: > 100 µM (inactive)
UACC-62
  GI50: 63.7 µM (inactive)
UO-31
  GI50: 41.1 µM (inactive)
